Experimental data taken from BindingDB's records for doi:10.1021/jm9800595 (Purdue University, 1998).

Biological target: T1, Gag-Pol polyprotein [588-1027]/[588-1147] (Human immunodeficiency virus 1, UniProt P04585)
T1 construct: 588-1027; 588-1147
Test: HIV-1 RT Assay
Conditions: pH 7.9

For `COC(=O)c1cc(C(=CC(=O)O)c2cc(Cl)c(OC)c(C(=O)OC)c2)cc(Cl)c1OC` [3,3-Dichloro-4,4-dimethoxy-5,5-bis(methoxycarbonyl)-3,3-diphenylpropenoic Acid], the IC50 was greater than 100 µM.

With `CC1(C)OC(=O)c2cc(C(=CCCBr)c3cc(Cl)c4c(c3)C(=O)OC(C)(C)O4)cc(Cl)c2O1` [6-[4-bromo-1-(8-chloro-2,2-dimethyl-4-oxo-2,4-dihydro-1,3-benzodioxin-6-yl)but-1-en-1-yl]-8-chloro-2,2-dimethyl-2,4-dihydro-1,3-benzodioxin-4-one] the IC50 was greater than 100 µM.

Molecule `CC1(C)OC(=O)c2cc(C(=CCCO)c3cc(Cl)c4c(c3)C(=O)OC(C)(C)O4)cc(Cl)c2O1` [8-chloro-6-[1-(8-chloro-2,2-dimethyl-4-oxo-2,4-dihydro-1,3-benzodioxin-6-yl)-4-hydroxybut-1-en-1-yl]-2,2-dimethyl-2,4-dihydro-1,3-benzodioxin-4-one] has an IC50 greater than 100 µM.

Molecule `COC=C(c1cc(Br)c(OC)c(C(=O)OC)c1)c1cc(Br)c(OC)c(C(=O)OC)c1` [Alkenyldiarylmethane (ADAM) 5] has an IC50 greater than 100 µM.

`COC(=O)c1cc(C(=CCCCC(=O)O)c2cc(Cl)c(OC)c(C(=O)OC)c2)cc(Cl)c1OC` [Alkenyldiarylmethane (ADAM) 25] was tested, and the IC50 was greater than 100 µM.

For `COc1c(Cl)cc(C(=CCCCC(=O)O)c2cc(Cl)c(OC)c(C(=O)O)c2)cc1C(=O)O` [Alkenyldiarylmethane (ADAM) 26], the IC50 was greater than 100 µM.

`COc1c(Cl)cc(C(=CCC(=O)O)c2cc(Cl)c(OC)c(C(=O)O)c2)cc1C(=O)O` [Alkenyldiarylmethane (ADAM) 27] gave an IC50 greater than 100 µM.

`C=C(c1cc(Br)c(OC)c(C(=O)OC)c1)c1cc(Br)c(OC)c(C(=O)OC)c1` [methyl 3-bromo-5-{1-[3-bromo-4-methoxy-5-(methoxycarbonyl)phenyl]ethenyl}-2-methoxybenzoate] gave an IC50 greater than 100 µM.

With `COC(=O)c1cc(C(=CCCO)c2cc(Cl)c(OC)c(C(=O)OC)c2)cc(Cl)c1OC` [methyl 3-chloro-5-{1-[3-chloro-4-methoxy-5-(methoxycarbonyl)phenyl]-4-hydroxybut-1-en-1-yl}-2-methoxybenzoate] the IC50 was greater than 100 µM.

Molecule `COC(=O)c1cc(C(=CC(=O)OC(C)(C)C)c2cc(Cl)c(OC)c(C(=O)OC)c2)cc(Cl)c1OC` [methyl 5-[3-(tert-butoxy)-1-[3-chloro-4-methoxy-5-(methoxycarbonyl)phenyl]-3-oxoprop-1-en-1-yl]-3-chloro-2-methoxybenzoate] has an IC50 greater than 100 µM.
